Assay results as given in patent publication US7687481B2, “Cannabinoid receptor antagonists/inverse agonists useful for treating obesity” (Jenrin Discovery, Inc., priority 2006, dated 2010).
Where two headings read alike, the source gives them in different places.

Columns and labels:
[1] = biological target: T1, human cannabinoid CB1 receptor (Homo sapiens, UniProt P21554); test: CB1 receptor affinity, [3H]CP-55,940 radioligand binding to CHO cell membranes
T1 construct: expressed in transfected cells; host or cells: Chinese hamster ovary (CHO) cells, stably transfected; membrane preparation
Protocol: CB1 receptor affinities can be determined using membrane preparations of Chinese hamster ovary (CHO) cells in which the human cannabinoid CB1 receptor is stably transfected (Biochem J. 1991, 279, 129-134) in conjunction with [3H]CP-55,940 as radioligand. After incubation of a freshly prepared cell membrane preparation with the [3H]-radioligand, with or without addition of test compound, separation of bound and free ligand is performed by filtration over glass fiber filters. Radioactivity on the filter is measured by liquid scintillation counting. The IC50 values can be determined from at least three independent measurements.
Tables A-E below describe selected examples of the present invention that have been synthesized and tested. The activities of these compounds are as follows: • +=an IC50 of ≦10 μM; • ++=IC50 of ≦1 μM; and, • +++=an IC50 ≦100 nM.

[2] = usually not maintained; cited from earlier work
[3] = cited from earlier work
[4] = Table B, read-out: CB1 Receptor Activity
[5] = Table A, read-out: CB1 Receptor Activity
[6] = Table E, read-out: CB1 Receptor Activity
[7] = Table C, read-out: CB1 Receptor Activity

T1 sequence (P21554 whole entry): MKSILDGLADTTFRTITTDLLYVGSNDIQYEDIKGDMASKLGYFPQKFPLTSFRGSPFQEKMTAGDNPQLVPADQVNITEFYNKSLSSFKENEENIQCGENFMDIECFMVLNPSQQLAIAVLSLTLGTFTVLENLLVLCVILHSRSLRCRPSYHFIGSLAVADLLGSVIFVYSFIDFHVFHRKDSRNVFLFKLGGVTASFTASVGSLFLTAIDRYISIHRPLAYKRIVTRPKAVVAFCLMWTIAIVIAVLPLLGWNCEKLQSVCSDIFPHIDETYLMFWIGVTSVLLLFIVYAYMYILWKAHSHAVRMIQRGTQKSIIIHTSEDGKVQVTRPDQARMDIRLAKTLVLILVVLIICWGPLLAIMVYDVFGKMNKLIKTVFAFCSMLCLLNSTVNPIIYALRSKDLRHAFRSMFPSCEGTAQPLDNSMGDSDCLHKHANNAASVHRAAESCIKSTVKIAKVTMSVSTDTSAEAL

Row | SMILES | IC50 [1, 4] [nM] | IC50 [1, 5] [nM] | also measured
1 | Cc1c(C(=O)NC(C)CC(N)=O)nn(-c2ccc(Cl)cc2Cl)c1-c1ccc(Cl)cc1 (stereo not shown) [Example B-2] | < 10000 | – | –
2 | CCOC(=O)C(CC(C)C)NC(=O)c1nn(-c2ccc(Cl)cc2Cl)c(-c2ccc(Cl)cc2)c1C (stereo not shown) [Example A-8] | – | – | IC50 [1]: < 100 nM
3 | CCOC(=O)CCNC(=O)c1nn(-c2ccc(Cl)cc2Cl)c(-c2ccc(Cl)cc2)c1C [Example A-3] | – | < 10000 | –
4 | CCOC(=O)CC(C)NC(=O)c1nn(-c2ccc(Cl)cc2Cl)c(-c2ccc(Cl)cc2)c1C (stereo not shown) [Example A-6] | – | < 1000 | –
5 | CCCCCCCCCCC[C@@H](C[C@@H]1OC(=O)[C@H]1CCCCCC)OC(=O)[C@H](CC(C)C)NC=O [orlistat] | – | – | initial weight loss compared to placebo [2]: approximately 5%
6 | Cc1c(C(=O)NC2CCC(C(N)=O)CC2)nn(-c2ccc(Cl)cc2Cl)c1-c1ccc(Cl)cc1 (stereo not shown) [Example E-2] | – | – | IC50 [1, 6]: < 10000 nM
7 | CCOC(=O)C1CCN(NC(=O)c2nn(-c3ccc(Cl)cc3Cl)c(-c3ccc(Cl)cc3)c2C)CC1 [Example C-2] | – | – | IC50 [1, 7]: < 1000 nM
8 | Cc1c(C(=O)NCc2cccc(C(N)=O)c2)nn(-c2ccc(Cl)cc2Cl)c1-c1ccc(Cl)cc1 [Example B-6] | < 1000 | – | –
9 | Cc1c(C(=O)NCCC(N)=O)nn(-c2ccc(Cl)cc2Cl)c1-c1ccc(Cl)cc1 [Example B-1] | < 10000 | – | –
10 | CCOC(=O)C(NC(=O)c1nn(-c2ccc(Cl)cc2Cl)c(-c2ccc(Cl)cc2)c1C)C(C)CC (stereo not shown) [Example A-10] | – | < 100 | –
11 | CCOC(=O)CNC(=O)c1nn(-c2ccc(Cl)cc2Cl)c(-c2ccc(Cl)cc2)c1C [Example A-1] | – | < 10000 | –
12 | Cc1c(C(=O)NN2CCCCC2)nn(-c2ccc(Cl)cc2Cl)c1-c1ccc(Cl)cc1 [rimonabant] | – | – | side effects ([3]; dose-related, most pronounced at the most efficacious weight-reducing dose): psychiatric and nervous system side effects; weight loss ([3]; obese patients): clinically meaningful weight loss
13 | CCOC(=O)C(C)NC(=O)c1nn(-c2ccc(Cl)cc2Cl)c(-c2ccc(Cl)cc2)c1C (stereo not shown) [Example A-7] | – | < 1000 | –
14 | Cc1c(C(=O)NC(Cc2ccccc2)C(=O)O)nn(-c2ccc(Cl)cc2Cl)c1-c1ccc(Cl)cc1 (stereo not shown) [Example A-4] | – | < 10000 | –
15 | Cc1c(C(=O)NCc2ccc(C(=N)N)cc2)nn(-c2ccc(Cl)cc2Cl)c1-c1ccc(Cl)cc1 [Example B-9] | < 10000 | – | –
16 | Cc1c(C(=O)NC(Cc2ccccc2)C(N)=O)nn(-c2ccc(Cl)cc2Cl)c1-c1ccc(Cl)cc1 (stereo not shown) [Example B-5] | < 100 | – | –
17 | CCOC(=O)C1CCC(NC(=O)c2nn(-c3ccc(Cl)cc3Cl)c(-c3ccc(Cl)cc3)c2C)CC1 (stereo not shown) [Example E-1] | – | – | IC50 [1, 6]: < 10000 nM
18 | CCOC(=O)CCCNC(=O)c1nn(-c2ccc(Cl)cc2Cl)c(-c2ccc(Cl)cc2)c1C [Example A-5] | – | < 10000 | –
19 | CC(C)CC(N(C)C)C1(c2ccc(Cl)cc2)CCC1 (stereo not shown) [sibutramine] | – | – | initial weight loss compared to placebo [2]: approximately 5%
20 | Cc1c(C(=O)NC(C(=O)O)C(C)(C)C)nn(-c2ccc(Cl)cc2Cl)c1-c1ccc(Cl)cc1 (stereo not shown) [Example A-12] | – | < 100 | –
21 | Cc1c(C(=O)NN2CCCC(C(N)=O)C2)nn(-c2ccc(Cl)cc2Cl)c1-c1ccc(Cl)cc1 (stereo not shown) [Example C-3] | – | – | IC50 [1, 7]: < 100 nM
22 | CCOC(=O)C(Cc1ccccc1)NC(=O)c1nn(-c2ccc(Cl)cc2Cl)c(-c2ccc(Cl)cc2)c1C (stereo not shown) [Example A-2] | – | < 1000 | –
23 | CCOC(=O)C(NC(=O)c1nn(-c2ccc(Cl)cc2Cl)c(-c2ccc(Cl)cc2)c1C)C(C)(C)C (stereo not shown) [Example A-11] | – | – | IC50 [1]: < 100 nM
24 | Cc1c(C(=O)NC(CC(C)C)C(=O)O)nn(-c2ccc(Cl)cc2Cl)c1-c1ccc(Cl)cc1 (stereo not shown) [Example A-9] | – | < 1000 | –
25 | Cc1c(C(=O)NC(C(N)=O)C(C)(C)C)nn(-c2ccc(Cl)cc2Cl)c1-c1ccc(Cl)cc1 (stereo not shown) [Example B-10] | – | – | IC50 [1]: < 100 nM
26 | CCOC(=O)C1CCCN(NC(=O)c2nn(-c3ccc(Cl)cc3Cl)c(-c3ccc(Cl)cc3)c2C)C1 (stereo not shown) [Example C-1] | – | – | IC50 [1, 7]: < 1000 nM
27 | Cc1c(C(=O)NC(CC(C)C)C(N)=O)nn(-c2ccc(Cl)cc2Cl)c1-c1ccc(Cl)cc1 (stereo not shown) [Example B-3] | < 1000 | – | –
28 | CCC(C)C(NC(=O)c1nn(-c2ccc(Cl)cc2Cl)c(-c2ccc(Cl)cc2)c1C)C(N)=O (stereo not shown) [Example B-4] | < 100 | – | –
29 | Cc1c(C(=O)NCc2cccc(C(=N)N)c2)nn(-c2ccc(Cl)cc2Cl)c1-c1ccc(Cl)cc1 [Example B-8] | < 1000 | – | –
30 | Cc1c(C(=O)NCc2ccc(C(N)=O)cc2)nn(-c2ccc(Cl)cc2Cl)c1-c1ccc(Cl)cc1 [Example B-7] | < 1000 | – | –
